One series concerns GP2D cells. In words: Cell proliferation assay (CellTiter-Glo), K-Ras G12D cells. The settings on record: GP2D cells (K-Ras G12D); read-out: Inhibition of GP2D Cells (IC50). In kind it is cell-based. Summed up: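 GP2D (K-Ras G12D) cells seeded in DMEM with 2 mM glutamine and 10% FBS, then dosed next day with a dilution series (e.g., 9-point 3-fold). Viability read by CellTiter-Glo luminescence after about 5 days. IC50 from four-parameter fit.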
In general terms: In ATP-based viability assays light output follows the ATP content of the culture.

The next series concerns A549 cells. Put plainly: Cell proliferation assay (CellTiter-Glo), K-Ras G12S cells. It counts as cell-based. The settings on record: for IC50: Homo sapiens, A549, A549 cells (K-Ras G12S), read-out: Inhibition of A549 Cells (IC50); for ratio of IC50 against a G12D cell line to IC50 against a G12S cell line: K-Ras G12D cell line such as GP2D relative to K-Ras G12S cell line such as A549, greater than 1, 2, 3, 4, 5, 10, 15 or even greater, 8640 min. Summed up: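 A549 cells (K-Ras G12S) in RPMI-1640 with 10% FBS, seeded in standard or ultra-low-attachment plates and dosed next day with a 10-point 3-fold series. Viability read about 6 days later by CellTiter-Glo luminescence. IC50 from four-parameter fit.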

In series [1] the target is T1, KRAS protein (His-tagged GDP-loaded G12S 1-169) (Homo sapiens, UniProt P01116, G12S).
T1 construct: His-tagged GDP-loaded G12S 1-169
Put plainly: Covalent modification of KRAS protein, intact-protein LC-MS. The note with it: 24hrs at room temperature, KRAS protein ~2 µM. In kind it is binding. Summed up: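 His-tagged GDP-loaded KRAS 1-169 (~2 µM) incubated with compound 24 h at room temperature, then quenched with formic acid. Intact-protein LC-ESI-MS on C4 column; deconvoluted peak intensities of unmodified and adducted protein give percent covalent modification.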

For the next series, the target named is T2, K-Ras G12S (Homo sapiens, UniProt P01116, G12S).
T2 construct: made in house; host or cells: E. coli (e.g., BL21 (DE3))
Put plainly: HTRF assay of the K-Ras / SOS1 interaction. It counts as biochemical. The settings on record: IC50 (against K-Ras G12D) to IC50 (against K-Ras G12S). Summed up:
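GST-K-Ras G12S with anti-GST-Eu donor and His-hSOS1 with anti-6His-XL665 acceptor in ~5 mM HEPES pH 7.4, ~150 mM NaCl, 1 mM DTT, 0.05% BSA, 0.0025% Igepal. Read after ~10 min or longer; IC50 from 665/620 nm ratio, duplicates at 10 µM down to 0.01 µM.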
(TR-FRET usually uses a lanthanide donor and a delayed reading to cut background.)

Series [2] can be described thus: Metabolic (microsomal) stability assay. In kind it is in vitro ADME. The note with it: mouse and/or human liver microsomal metabolism assays, greater than 10, 20, 30, 40, 50, 60 mins or longer. As to the method: All incubations are conducted in duplicate. […] Supernatants (40 µL) are transferred into clean 96-deep well plates.
The column temperature is maintained at 40 °C.
(Ct)/(C0) = e^−kt [formula]
(Liver microsomes are vesicles of endoplasmic reticulum, rich in cytochrome P450 enzymes.)

Like-named read-outs stand apart in the source and are kept apart here.

By IC50 is commonly meant the midpoint of a concentration-inhibition curve. As to `N#Cc1c(N)sc2c(F)ccc(-c3c(Cl)cc4c(N5CCC6CN(C(=O)n7cncn7)CC65)nc(OC[C@@]56CCCN5C[C@H](F)C6)nc4c3F)c12` (stereo partly drawn) [Compound A178, 4-(4-(5-(1H-1,2,4-triazole-1-carbonyl)hexahydropyrrolo[3,4-b]pyrrol-1(2H)-yl)-6-chloro-8-fluoro-2-(((2R,7aS)-2-fluorotetrahydro-1H-pyrrolizin-7a(5H)-yl)methoxy)quinazolm-7-yl)-2-amino-7-fluorobenzo[b]thiophene-3-carbonitrile], the half-maximal inhibitory concentration (IC50) with GP2D cells is ≤ 1000 nM; in the series with A549 cells (bin ≤ 500 nM), ≤ 500 nM. Further, the “% G12S Modification at 24 hr.” value in series [1] is given as “+++ (+++ indicates greater than 20% labelling)”.
For the compound `N#Cc1c(N)sc2c(F)ccc(-c3c(Cl)cc4c(N5CC6CCC(C5)N6C(=O)n5ncnc5Cl)nc(OC[C@@]56CCCN5C[C@H](F)C6)nc4c3F)c12` [Compound A194], in the series with GP2D cells, the IC50 was ≤ 1000 nM. The “% G12S Modification at 24 hr.” value in series [1] was “++ (++ indicates between about 1%- 20% labelling)”. In addition, the “Ratio of IC50 KRAS G12D vs. IC50 KRAS G12S” value at K-Ras G12S is “A (A: indicates that the ratio of IC50 against KrasG12D vs. IC50 against KrasG12S is 1-fold or greater)”. Besides, in series [2] (0.5 µM), the T1/2 result is on record as “greater than 10 mins”.
For the compound `C#Cc1c(F)ccc2cc(O)cc(-c3ccc4c(N5CCCC6(CN(C(=O)n7cncn7)C6)C5)nc(OC[C@@]56CCCN5C[C@H](F)C6)nc4c3F)c12` [Compound A210, (6-(7-(8-ethynyl-7-fluoro-3-hydroxynaphthalen-1-yl)-8-fluoro-2-(((2R,7aS)-2-fluorotetrahydro-1H-pyrrolizin-7a(5H)-yl)methoxy)quinazolin-4-yl)-2,6-diazaspiro[3.5]nonan-2-yl)(1H-1,2,4-triazol-1-yl)methanone], the IC50 in the series with GP2D cells was 1000 to 10000 nM; in the series on A549 cells (bin ≤ 500 nM), ≤ 500 nM. Besides, the “ratio of IC50 against a G12D cell line to IC50 against a G12S cell line” value in the series with A549 cells is “greater than 1”. Further, the “% G12S Modification at 24 hr.” value in series [1] is reported as “+++ (+++ indicates greater than 20% labelling)”.
In the same order, the values of `C[C@H](Oc1nc(N2CCCCC3(CN(C(=O)n4cncn4)C3)C2)c2cc(Cl)c(-c3ccc(F)c4sc(N)c(C#N)c34)c(F)c2n1)[C@@H]1CCCN1C` [Compound A219, 4-(4-(2-(1H-1,2,4-triazole-1-carbonyl)-2,6-diazaspiro[3.6]decan-6-yl)-6-chloro-8-fluoro-2-((S)-1-((S)-1-methylpyrrolidin-2-yl)ethoxy)quinazolin-7-yl)-2-amino-7-fluorobenzo[b]thiophene-3-carbonitrile] are ≤ 1000 nM, ≤ 500 nM, “greater than 1” and “+++ (+++ indicates greater than 20% labelling)”.
Consider `C#Cc1c(F)ccc2cc(O)cc(-c3ncc4c(N5CC6CCC(C5)N6C(=O)n5cnc(C#N)c5)nc(OC[C@@]56CCCN5C[C@H](F)C6)nc4c3F)c12` [Compound A255, 1-(3-(7-(8-ethynyl-7-fluoro-3-hydroxynaphthalen-1-yl)-8-fluoro-2-(((2R,7aS)-2-fluorotetrahydro-1H-pyrrolizin-7a(5H)-yl)methoxy)pyrido[4,3-d]pyrimidin-4-yl)-3,8-diazabicyclo[3.2.1]octane-8-carbonyl)-1H-imidazole-4-carbonitrile], for which the IC50 in the series with GP2D cells is ≤ 1000 nM; in the series with A549 cells (bin 500 nM to 5 µM), 500 to 5000 nM. The “% G12S Modification at 24 hr.” value in series [1] is on record as “++ (++ indicates between about 1%- 20% labelling)”.
On to `C[C@H](Oc1nc(N2CCOC3(CN(C(=O)n4cncn4)C3)C2)c2cc(Cl)c(-c3ccc(F)c4sc(N)c(C#N)c34)c(F)c2n1)[C@@H]1CCCN1C` [Compound A275, 4-(4-(2-(1H-1,2,4-triazole-1-carbonyl)-5-oxa-2,8-diazaspiro[3.5]nonan-8-yl)-6-chloro-8-fluoro-2-((S)-1-((S)-1-methylpyrrolidin-2-yl)ethoxy)quinazolin-7-yl)-2-amino-7-fluorobenzo[b]thiophene-3-carbonitrile], for which the results for the IC50 in the series on GP2D cells and with A549 cells (bin ≤ 500 nM) were 1000 to 10000 nM and ≤ 500 nM, respectively. The “% G12S Modification at 24 hr.” value in series [1] is on record as “+++ (+++ indicates greater than 20% labelling)”.
As a reminder, the half-life is the time needed for the level to fall by half in the phase considered. A lower half-life goes with rapid decline. On to `N#Cc1cnn(C(=O)N2C3CCC2CN(c2nc(OC[C@@]45CCCN4C[C@H](F)C5)nc4c(F)c(-c5ccc(F)c6sc(N)c(C#N)c56)c(Cl)cc24)C3)c1` [Compound A278, 1-(3-(7-(2-amino-3-cyano-7-fluorobenzo[b]thiophen-4-yl)-6-chloro-8-fluoro-2-(((2R,7aS)-2-fluorotetrahydro-1H-pyrrolizin-7a(5H)-yl)methoxy)quinazolin-4-yl)-3,8-diazabicyclo[3.2.1]octane-8-carbonyl)-1H-pyrazole-4-carbonitrile], for which the IC50 with GP2D cells was ≤ 1000 nM. Besides, the “Ratio of IC50 KRAS G12D vs. IC50 KRAS G12S” value at K-Ras G12S is “A (A: indicates that the ratio of IC50 against KrasG12D vs. IC50 against KrasG12S is 1-fold or greater)”. The half-life at 0.5 µM in series [2] (liver microsomes, pH 7.4) is > 10 min.
As for `N#Cc1c(N)sc2c(F)ccc(-c3c(Cl)cc4c(N5CCCCC6(CN(C(=O)n7cncn7)C6)C5)nc(OC[C@@]56CCCN5C[C@H](F)C6)nc4c3F)c12` [Compound A295, 4-(4-(2-(1H-1,2,4-triazole-1-carbonyl)-2,6-diazaspiro[3.6]decan-6-yl)-6-chloro-8-fluoro-2-(((2R,7aS)-2-fluorotetrahydro-1H-pyrrolizin-7a(5H)-yl)methoxy)quinazolin-7-yl)-2-amino-7-fluorobenzo[b]thiophene-3-carbonitrile], the IC50 was ≤ 1000 nM in the series on GP2D cells and ≤ 500 nM in the series on A549 cells (bin ≤ 500 nM). Further, in series [1], the “% G12S Modification at 24 hr.” value is listed as “+++ (+++ indicates greater than 20% labelling)”.

Values taken from patent publication EP4389751A1, “HETEROCYCLIC COMPOUNDS AND USES THEREOF” (Kumquat Biosciences Inc., priority 2021, dated 2024).
